The text below walks through data of patent publication US20110319396A1, “BENZODIAZEPIN-2-ON DERIVATIVES” (MSD K.K., priority 2009, published 2011).

The experiment deals with T1, Human DGAT1 (Homo sapiens, UniProt O75907).
T1 construct: made in house; host or cells: Pichia pastoris (printed 'Pichia pastris'), vector pPICZA, membrane fraction
T1 sequence (O75907 1-488): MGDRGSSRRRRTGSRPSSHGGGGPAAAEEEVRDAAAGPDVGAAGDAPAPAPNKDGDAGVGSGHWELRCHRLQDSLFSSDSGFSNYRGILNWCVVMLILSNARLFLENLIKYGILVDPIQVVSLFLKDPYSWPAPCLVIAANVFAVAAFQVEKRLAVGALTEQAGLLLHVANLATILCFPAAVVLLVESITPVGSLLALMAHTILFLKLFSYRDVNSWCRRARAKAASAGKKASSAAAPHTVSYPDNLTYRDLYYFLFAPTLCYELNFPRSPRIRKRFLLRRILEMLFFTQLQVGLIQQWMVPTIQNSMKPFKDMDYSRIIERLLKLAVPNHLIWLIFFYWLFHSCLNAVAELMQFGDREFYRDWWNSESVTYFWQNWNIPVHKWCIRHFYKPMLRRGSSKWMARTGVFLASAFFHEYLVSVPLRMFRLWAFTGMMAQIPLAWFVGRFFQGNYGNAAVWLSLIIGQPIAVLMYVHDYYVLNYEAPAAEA
Description: DGAT1 Inhibitory Activity Test. Format: biochemical. The note with it: DGAT1-expressed yeast membrane fraction as enzyme source; 40 μM Dioelin, 15 μM [14C]-oleoyl-CoA; room temperature for 30 minutes. On the procedure:
Human DGAT1 genes were amplified by PCR using primers described below from human cDNA library (Clontech).
The amplified human DGAT1 genes were introduced into a yeast expression vector pPICZA (Invitrogen). The resultant expression plasmid was introduced into an yeast (Pichia pastris) by electroporation to produce a recombinant yeast. The recombinant yeast was cultured in the presence of 0.5% methanol for 72 hours, and the cells were crushed using glass beads in 10 mM Tris pH 7.5, 250 mM sucrose and 1 mM EDTA, followed by adjusting the membrane fraction by centrifugation to use the adjusted membrane fraction as an enzyme source.
To the reaction liquid having the following composition: 100 mM Tris pH 7.5, 100 mM MgCl2, 100 mM sucrose, 40 μM Dioelin, 15 μM [^14C]-oleoyl-CoA, 0.25 μg of test substance, DGAT1-expressed yeast membrane fraction, was added, and the mixture having a volume of 100 μl was incubated at room temperature for 30 minutes. To the reaction liquid, 100 μl of 2-propanol/heptan/H2O (80/20/2) was added, the mixture was stirred well, followed by adding 200 of heptane and further stirring the mixture. After centrifugation, the heptane layer was collected, ethanol/0.1N NaOH/H2O (50:5:45) was added, the mixture was thus stirred, followed by recentrifuging the mixture and collecting the heptane layer. After exsiccation of the resultant heptane layer, 100 μl of Microscint 0 (PerkinElmer) was added, and the radioactivity was measured with a liquid scintillation counter. The inhibitory activity was calculated from the following formula:
Inhibition rate=100−(radioactivity in case of addition of test compound−background)/(radioactivity in case of addition of no test compound−background)×100
wherein the background means the radioactivity in case of addition of no membrane fraction.
The term IC50 denotes the concentration needed to halve the response being measured. Consider `CN1C(=O)[C@H](NC(=O)C(C)(C)NC(=O)c2ccc(F)cc2)CN(c2ccc(OC(F)(F)F)cc2)c2ccc(F)cc21` [Example 1, 4-fluoro-N-[2-({(3R)-8-fluoro-1-methyl-2-oxo-5-[4-(trifluoromethoxy)phenyl]-2,3,4,5-tetrahydro-1H-1,5-benzodiazepin-3-yl}amino)-1,1-dimethyl-2-oxoethyl]benzamide], for which half-maximal inhibition (IC50) required 166 nM.

In turn, `CN1C(=O)[C@H](NC(=O)C2(NC(=O)c3ccccc3)CC2)CN(c2ccc(OC(F)(F)F)cc2)c2ccc(F)cc21` [Example 12, N-{1-[({(3R)-8-fluoro-1-methyl-2-oxo-5-[4-(trifluoromethoxy)phenyl]-2,3,4,5-tetrahydro-1H-1,5-benzodiazepin-3-yl}amino)carbonyl]cyclopropyl}benzamide] had an IC50 of 192 nM.

The compound `CN1C(=O)[C@H](NC(=O)C(C)(C)NC(=O)C2(C(F)(F)F)CC2)CN(c2cc(C(F)(F)F)cc(C(F)(F)F)c2)c2ccc(F)cc21` [Example 27, N-{(3R)-5-[3,5-bis(trifluoromethyl)phenyl]-8-fluoro-1-methyl-2-oxo-2,3,4,5-tetrahydro-1H-1,5-benzodiazepin-3-yl}-2-methyl-N^2-{[1-(trifluoromethyl)cyclopropyl]carbonyl}alaninamide] showed an IC50 of 16.3 nM.

As to `CN1C(=O)[C@H](NC(=O)C(C)(C)NC(=O)NC(C)(C)C)CN(c2cc(Cl)cc(Cl)c2)c2ccc(F)cc21` [Example 47, N^2-[(tert-butylamino)carbonyl]-N-[(3R)-5-(3,5-dichlorophenyl)-8-fluoro-1-methyl-2-oxo-2,3,4,5-tetrahydro-1H-1,5-benzodiazepin-3-yl]-2-methylalanineamide], the half-inhibitory concentration (IC50) was 61.3 nM. This IC50 is about 3.8-fold higher than that of the compound before.

With `CN1C(=O)[C@H](NC(=O)C(C)(C)NC(=O)N2CCCCC2)CN(c2ccc(OC(F)(F)F)cc2)c2ccc(F)cc21` [Example 52, N-[2-({(3R)-8-fluoro-1-methyl-2-oxo-5-[4-(trifluoromethoxy)phenyl]-2,3,4,5-tetrahydro-1H-1,5-benzodiazepin-3-yl}amino)-1,1-dimethyl-2-oxoethyl]piperidin-1-carboxyamide], the IC50 was found to be 91.1 nM.

`CN1C(=O)[C@H](NC(=O)C(C)(C)NC(=O)c2ccc(F)cc2)CN(c2cc(Cl)cc(Cl)c2)c2cc(F)ccc21` [Example 59, N-(2-{[(3R)-5-(3,5-dichlorophenyl)-7-fluoro-1-methyl-2-oxo-2,3,4,5-tetrahydro-1H-1,5-benzodiazepin-3-yl]amino}-1,1-dimethyl-2-oxoethyl)-4-fluorobenzamide]: inhibition was half-maximal at 40.2 nM (IC50).

In turn, `CN1C(=O)[C@H](NC(=O)C2(NC(=O)c3ccccc3)CC2)CN(Cc2cc(C(F)(F)F)cc(C(F)(F)F)c2)c2ccccc21` [Example 64, N-{1-[({(3R)-5-[3,5-bis(trifluoromethyl)benzyl]-1-methyl-2-oxo-2,3,4,5-tetrahydro-1H-1,5-benzodiazepin-3-yl}amino)carbonyl]cyclopropyl}benzamide] yielded an IC50 of 47.3 nM.

As for `CN1C(=O)[C@H](NC(=O)C(C)(C)NC(=O)c2ccc(F)cc2)CN(Cc2ccc(F)c(C(F)(F)F)c2)c2ccc(F)cc21` [Example 84, 4-fluoro-N-[2-({(3R)-8-fluoro-5-[4-fluoro-3-(trifluoromethyl)benzyl]-1-methyl-2-oxo-2,3,4,5-tetrahydro-1H-1,5-benzodiazepin-3-yl}amino)-1,1-dimethyl-2-oxoethyl]benzamide], the IC50 came out at 140 nM.

`CN1C(=O)[C@H](NC(=O)C2(NC(=O)OC(C)(C)C)CC2)CN(Cc2ccc(OC(F)(F)F)cc2)c2ccccc21` [Example 92, tert-butyl {1-[({(3R)-1-methyl-2-oxo-5-[4-(trifluoromethoxy)benzyl]-2,3,4,5-tetrahydro-1H-1,5-benzodiazepin-3-yl}amino)carbonyl]cyclopropyl}carbamate] registered an IC50 of 20.8 nM.

In turn, `Cc1cnc(C(=O)NC(C)(C)C(=O)N[C@@H]2CN(Cc3ccc(OC(F)(F)F)cc3)c3ccc(F)cc3N(C)C2=O)cn1` [Example 98, N-[2-({(3R)-8-fluoro-1-methyl-2-oxo-5-[4-(trifluoromethoxy)benzyl]-2,3,4,5-tetrahydro-1H-1,5-benzodiazepin-3-yl}amino)-1,1-dimethyl-2-oxoethyl]-5-methylpyrazin-2-carboxyamide] registered an IC50 of 1340 nM.

`CN1C(=O)[C@H](NC(=O)C(C)(C)NC(=O)c2ncco2)CN(Cc2ccc(OC(F)(F)F)cc2)c2ccc(F)cc21` [Example 100, N-[2-({(3R)-8-fluoro-1-methyl-2-oxo-5-[4-(trifluoromethoxy)benzyl]-2,3,4,5-tetrahydro-1H-1,5-benzodiazepin-3-yl}amino)-1,1-dimethyl-2-oxoethyl]-1,3-oxazol-2-carboxyamide]: 2230 nM corresponded to half-maximal inhibition (IC50).

In turn, “N-(2-{[(3R)-5-(3,5-dichlorophenyl)-8-fluoro-1-methyl-2-oxo-2,3,4,5-tetrahydro-1H-1,5-benzodiazepin-3-yl]amino}-1,1-dimethyl-2-oxoethyl)-1,3-thiazol-2-carboxyamide [Example 45]” yielded an IC50 of 29.2 nM.

On to “N-[2-({(3R)-5-[3,5-bis(trifluoromethyl)phenyl]-8-fluoro-1-methyl-2-oxo-2,3,4,5-tetrahydro-1H-1,5-benzodiazepin-3-yl}amino)-1,1-dimethyl-2-oxoethyl]-5-fluoropyridine-2-carboxyamide [Example 19]”, for which the IC50 was 24.1 nM.
